Data: patent publication EP0603031A2, “Antiviral antibiotic BU-4724V and preparation thereof” (Bristol-Myers Squibb Company, priority 1992, dated 1994)
Like-named read-outs stand apart in the source and are kept apart here. Positions of bridges follow the written chain, without caps; N, C: chain ends. Residues, ends and D or L forms follow the SMILES beside them.

Columns and labels:
[1] = system: herpes simplex virus type 1 (HSV-1) using the KOS strain; assay: Anti-HSV assay, inhibition of virus-induced cytopathic effect in Vero cells; assay type: cell-based; details: HSV-1 KOS, 72 hours at 37°C
Description: (§1) The in vitro antiviral activity of BU-4724V was assessed against the herpes simplex virus type 1 (HSV-1) using the KOS strain. The assay was done according to the reported protocol of C. McLaren et al. in Antiviral Research, 3, 223-234, (1986) with minor modification. Briefly, 50 µl of Eagle's MEM medium containing BU-4724V and then 200 µl of the Vero cell suspension (2 X 10⁴ cells/200 µl) were added to a well of a 96-well microtiter plate. To the well, 50µl of medium containing approximately 30 times of the 50% tissue culture infectious dose (50% TCID) of virus was added. In a parallel experiment, the same set of cells without virus infection was prepared, which was for the determination of cytotoxicity of the sample. After 72 hours incubation at 37°C, the inhibition degree of virus-induced cytopathic effect and cytotoxicity by the sample were determined, respectively. The ID₅₀ is expressed as the concentration of a compound showing 50% growth inhibition of the cytopathic effect and the TD₅₀ as the concentration of a compound showing 50% growth inhibition of the cells in the absence of virus. Acyclovir was used as the reference compound for anti-HSV activity in the assay.

[2] = system: Vero cell; assay: Cytotoxicity in Vero cells without virus infection; assay type: cell-based; details: Vero cells in the absence of virus, 72 hours at 37°C
Description: as §1

[3] = system: HIV-1 RF; assay: XTT anti-HIV assay in CEM-SS cells; assay type: cell-based, human immunodeficiency virus; details: HIV-1 RF strain, read-out: IC₅₀
Description: (§2) The antiviral effect is expressed as the inhibitory concentration of a compound which reduces the number of viruses of the infected culture to 50% of that of the drug - untreated, control culture (IC₅₀). The cytotoxicity is expressed as the concentration of a compound which yields 50% of the number of viable cells of the untreated control cultures (IC₅₀). In this assay, 2',3'-Dideoxyinosine (ddI, Videx®) was also tested for anti-HIV activity.

[4] = system: HIV-1 IIIb; assay: XTT anti-HIV assay in CEM-SS cells; assay type: cell-based, human immunodeficiency virus; details: HIV-1 IIIb strain, read-out: IC₅₀
Description: as §2

[5] = system: HIV-2 CBL-20; assay: XTT anti-HIV assay in CEM-SS cells; assay type: cell-based, human immunodeficiency virus; details: HIV-2 CBL-20 strain, read-out: IC₅₀
Description: The CEM-SS cells were obtained from Peter Nara, AIDS Research and Reference Program, Division of AIDS, NIAID, NIH.
as §2

[6] = Cytotoxicity in CEM-SS cells (XTT assay); assay type: cell-based; details: human, 50% of viable cells of untreated control, read-out: cytotoxicity IC₅₀
Description: as §2

[7] = system: CEM-SS cells; assay: Cytotoxicity in CEM-SS cells (XTT assay); assay type: cell-based; details: result in words
Description: as §2

[8] = system: S. typhi 901; assay type: cell-based; details: 901, 18 h, pH 7
[9] = system: human immunodeficiency virus; assay: XTT anti-HIV assay in CEM-SS cells (strain not stated); assay type: cell-based; details: Human immunodeficiency virus 1, anti-HIV activity, read-out: IC₅₀
[10] = system: CEM-SS cells
Description: as §2

Structure (SMILES)	ID₅₀ [1] [µg/mL]	TD₅₀ [2] [µg/mL]	IC50 [3] [µM]	IC50 [4] [µM]	IC50 [5] [µM]	CC50 [6] [µM]	cytotoxicity [7]	MIC [8] [µg/mL]	solubility (in alkaline water)	solubility (in dimethyl sulfoxide, dimethylformamide, methanol and ethanol)	solubility (in water, ethyl acetate, chloroform, benzene, n-hexane and petroleum ether)	IC50 [9] [µM]	cytotoxicity [10]
Nc1nc2c(ncn2COCCO)c(=O)[nH]1 [Acyclovir]	0.28	>100											
CC[C@H](C)[C@@H]1NC(=O)[C@H](C)NC(=O)[C@H](Cc2ccc(O)cc2)NC(=O)CNC(=O)[C@@H]2CSSC[C@@H]3NC(=O)C[C@H](NC(=O)[C@H](CC(N)=O)NC(=O)[C@H](CSSC[C@@H](C(=O)N[C@@H](Cc4ccccc4)C(=O)N[C@@H](Cc4c[nH]c5ccccc45)C(=O)O)NC(=O)[C@H](C(C)C)NC1=O)NC(=O)[C@H](CO)NC(=O)CNC(=O)[C@H](C(C)C)NC(=O)CNC(=O)[C@H](CC(C)C)NC3=O)C(=O)N[C@@H](Cc1ccccc1)C(=O)N[C@@H](C)C(=O)NCC(=O)N2 [BU-4724V] (CLGVGSCNDFAGCGYAIVCFW-OH; disulfide 1-13, 7-19; lactam N-9; C-terminus assumed)	48	>100	0.09 to 0.6	0.46	0.23	~150	very weak cytotoxicity	>100	slightly soluble	soluble	insoluble		
O=c1[nH]cnc2c1ncn2[C@H]1CC[C@@H](CO)O1 [ddI, 2',3'-Dideoxyinosine]												1 to 2	very weak cytotoxicity
